Conditions in one data set: not given
Regarding `COc1cc(Nc2c(C#N)cnc3cc(OCCN4CCN(C)CC4)c(OC)cc23)c(Cl)cc1Cl` [Example 4, 4-[(2,4-Dichloro-5-methoxyphenyl)amino]-6-methoxy-7-[2-(4-methyl-1-piperazinyl)ethoxy]-3-quinolinecarbonitrile], the melting point (commonly the temperature of the solid-liquid transition) fell in the range of 165 to 167 °C.
`CCN1CCC(COc2cc3ncc(C#N)c(Nc4cc(OC)c(Cl)cc4Cl)c3cc2OC)CC1` [Example 9, 4-[(2,4-Dichloro-5-methoxyphenyl)amino]-7-[(1-ethylpiperidin-4-yl)methoxy]-6-methoxyquinoline-3-carbonitrile]: the melting point lay within 192 to 195 °C.
In the case of `CCOc1cc2c(Nc3cc(OC)c(Cl)cc3Cl)c(C#N)cnc2cc1OCCCN1CCN(C)CC1` [Example 10, 4-[(2,4-Dichloro-5-methoxyphenyl)amino]-6-ethoxy-7-[3-(4-methylpiperazin-1-yl)propoxy]quinoline-3-carbonitrile], the melting point is 137 to 138 °C.
Same read-out and setting: with `CCOc1cc2c(Nc3cc(OC)c(Cl)cc3Cl)c(C#N)cnc2cc1OCCCN1CCN(CC)CC1` [Example 12, 4-[(2,4-Dichloro-5-methoxyphenyl)amino]-6-ethoxy-7-[3-(4-ethylpiperazin-1-yl)propoxy]quinoline-3-carbonitrile] the figure was 127 to 130 °C; with `CCOc1cc2c(Nc3cc(OC)c(Cl)cc3Cl)c(C#N)cnc2cc1OCCCC1CCN(C)CC1` [Example 13, 4-[(2,4-Dichloro-5-methoxyphenyl)amino]-6-ethoxy-7-[3-(1-methylpiperidin-4-yl)propoxy]quinoline-3-carbonitrile], 148 to 151 °C.
Same read-out and setting: with `CCOc1cc2c(Nc3cc(OC)c(Cl)cc3Cl)c(C#N)cnc2cc1OCCN1CCN(C)CC1` [Example 14, 4-[(2,4-Dichloro-5-methoxyphenyl)amino]-6-ethoxy-7-[2-(4-methyl-1-piperazinyl)ethoxy]quinoline-3-carbonitrile] the figure was 141 to 143 °C; with `CCOc1cc2c(Nc3cc(OC)c(Cl)cc3Cl)c(C#N)cnc2cc1OCCC1CCN(C)CC1` [Example 15, 4-[(2,4-Dichloro-5-methoxyphenyl)amino]-6-ethoxy-7-[2-(1-methylpiperidin-4-yl)ethoxy]quinoline-3-carbonitrile], 174 to 176 °C.

For the next data set the following is noted: patients; cited from earlier work.
As for `Cc1nc(Nc2ncc(C(=O)Nc3c(C)cccc3Cl)s2)cc(N2CCN(CCO)CC2)n1` [Dasatinib], the adverse effects result was “hematologic toxicity and edema”.

Values taken from patent US11103497B2, “Treatment of imatinib resistant leukemia” (Wyeth LLC, priority 2007, dated 2021).
